Patent US20130224234A1, “TTLL4 PEPTIDES AND VACCINES CONTAINING THE SAME” (Onco Therapy Science, Inc., priority 2010, published 2013)
Entries after “also recorded” stand apart in the source; their conditions may differ.

Columns and labels:
[1] = test system: peptide-pulsed TISI cells; assay: IFN-gamma ELISA assay of CTL lines (HLA-A*2402); type: cell-based, human; details: CTL lines stimulated with peptide, target cells pulsed with peptide vs without peptide pulse
Procedure: CTLs were expanded in culture using the method similar to the one described by Riddell et al. (Walter E A et al., N Engl J Med 1995 333(16): 1038-44; Riddell S R et al., Nat Med 1996, 2(2): 216-23). A total of 5×10^4 CTLs were suspended in 25 ml of AIM-V/5% AS medium with 2 kinds of human B-lymphoblastoid cell lines, inactivated by Mitomycin C, in the presence of 40 ng/ml of anti-CD3 monoclonal antibody (Pharmingen). One day after initiating the cultures, 120 IU/ml of IL-2 were added to the cultures. The cultures were fed with fresh AIM-V/5% AS medium containing 30 IU/ml of IL-2 on days 5, 8 and 11 (Tanaka H et al., Br J Cancer 2001, 84(1): 94-9; Umano Y et al., Br J Cancer 2001, 84(8): 1052-7; Uchida N et al., Clin Cancer Res 2004, 10(24): 8577-86; Suda T et al., Cancer Sci 2006, 97(5): 411-9; Watanabe T et al., Cancer Sci 2005, 96(8): 498-506).
(§1) Specifically, peptide-pulsed TISI (1×10^4/well) was prepared as stimulator cells. Cultured cells in 48 wells were used as responder cells. IFN-gamma ELISPOT assay and IFN-gamma ELISA assay were performed under manufacture procedure.
(§2) CTL activity of these CTL lines was determined by IFN-gamma ELISA assay (FIG. 2a-f). […] Furthermore, the CTL clones were established by limiting dilution from the CTL lines as described in “Materials and Methods”, and IFN-gamma production from the CTL clones against target cells pulsed peptide was determined by IFN-gamma ELISA assay. […] (FIG. 3a-d).

[2] = test system: peptide-pulsed TISI cells; assay: IFN-gamma ELISA assay of CTL clones (HLA-A*2402); type: cell-based, human; details: CTL clones by limiting dilution, target cells pulsed with peptide vs control
Procedure: The dilutions were made to have 0.3, 1, and 3 CTLs/well in 96 round-bottomed micro titer plate (Nalge Nunc International). CTLs were cultured with 1×10^4 cells/well of 2 kinds of human B-lymphoblastoid cell lines, 30 ng/ml of anti-CD3 antibody, and 125 U/ml of IL-2 in a total of […] of AIM-V Medium containing 5% AS. 50 micro-l/well of IL-2 were added to the medium 10 days later so to reach a final concentration of 125 U/ml IL-2. CTL activity was tested on the 14th day, and CTL clones were expanded using the same method as described above (Uchida N et al., Clin Cancer Res 2004, 10(24): 8577-86; Suda T et al., Cancer Sci 2006, 97(5): 411-9; Watanabe T et al., Cancer Sci 2005, 96(8): 498-506).
as §1, §2

[3] = test system: peptide-pulsed TISI cells; assay: In vitro CTL induction, IFN-gamma ELISPOT assay (HLA-A*2402); type: cell-based, human; details: CTLs induced with peptide from HLA-A*2402 positive donor, peptide-pulsed TISI vs control
From the text: Monocyte-derived dendritic cells (DCs) were used as antigen-presenting cells to induce cytotoxic T lymphocyte (CTL) responses against peptides presented on human leukocyte antigen (HLA). DCs were generated in vitro as described elsewhere (Nakahara S et al., Cancer Res 2003, 63(14): 4112-8). Specifically, peripheral blood mononuclear cells isolated from a normal volunteer (HLA-A*2402 positive) by Ficoll-Plaque (Pharmacia) solution were separated by adherence to a plastic tissue culture dish (Becton Dickinson) so as to enrich them as the monocyte fraction. The monocyte-enriched population was cultured in the presence of 1000 U/ml of granulocyte-macrophage colony-stimulating factor (R&D System) and 1000 U/ml of interleukin (IL)-4 (R&D System) in AIM-V Medium (Invitrogen) containing 2% heat-inactivated autologous serum (AS). After 7 days of culture, the cytokine-induced DCs were pulsed with 20 micro-g/ml of each of the synthesized peptides in the presence of 3 micro-g/ml of beta 2-microglobulin for 3 hr at 37 degrees C. in AIM-V Medium. The generated cells appeared to express DC-associated molecules, such as CD80, CD83, CD86 and HLA class II, on their cell surfaces (data not shown). These peptide-pulsed DCs were then inactivated by X-irradiation (20 Gy) and mixing at a 1:20 ratio with autologous CD8+ T cells, obtained by positive selection with CD8 Positive Isolation Kit (Dynal). These cultures were set up in 48-well plates (Corning); each well contained 1.5×10^4 peptide-pulsed DCs, 3×10^5 CD8+ T cells and 10 ng/ml of IL-7 (R&D System) in 0.5 ml of AIM-V/2% AS medium. Three days later, these cultures were supplemented with IL-2 (CHIRON) to a final concentration of 20 IU/ml. On day 7 and 14, the T cells were further stimulated with the autologous peptide-pulsed DCs. The DCs were prepared each time by the same way described above. CTL was tested against peptide-pulsed TISI cells after the 3rd round of peptide stimulation on day 21 (Tanaka H et al., Br J Cancer 2001, 84(1): 94-9; Umano Y et al., Br J Cancer 2001, 84(8): 1052-7; Uchida N et al., Clin Cancer Res 2004, 10(24): 8577-86; Suda T et al., Cancer Sci 2006, 97(5): 411-9; Watanabe T et al., Cancer Sci 2005, 96(8): 498-506).
as §1
CTLs for those peptides derived from TTLL4 were generated according to the protocols as described in “Materials and Methods”.

[4] = test system: COS7 cells transfected with TTLL4 and HLA-A*2402; assay: Specific CTL activity against target cells expressing TTLL4 and HLA-A*2402; type: cell-based, African green monkey; details: for Specific CTL activity against COS7 cells transfected with both TTLL4 and HLA-A*2402: CTL line (9-103) or CTL clones (10-103, 10-773) established with peptide; for Specific CTL activity against control COS7 cells expressing either HLA-A*2402 or TTLL4: controls: COS7 transfected with only full length TTLL4 or only HLA-A*2402
From the text: The cDNA encoding an open reading frame of target genes or HLA-A*2402 was amplified by PCR. The PCR-amplified product was cloned into a vector. The plasmids were transfected into COS7, which is the target genes and HLA-A*2402-null cell line, using lipofectamine 2000 (Invitrogen) according to the manufacturer's recommended procedures. After 2 days from transfection, the transfected cells were harvested with versene (Invitrogen) and used as the target cells (5×10^4 cells/well) for CTL activity assay.
The established CTL lines and clones raised against each peptide were examined for the ability to recognize target cells that express TTLL4 and HLA-A*2402 molecule. […] COS7 cells transfected with either full length of TTLL4 or HLA-A*2402 were prepared as the controls.

Question: How did the “IFN-gamma production of CTL lines (ELISA)” value [1] turn out when AYFFCPSTL [SEQ ID NO: 6] was run?
Answer: Its value is “potent IFN-gamma production”.

Question: And the “IFN-gamma production of CTL clones (ELISA)” value ([2]; listed as TTLL4-A24-9-79)?
Answer: The value was “Potent IFN-gamma productions”.

Question: What about the “Peptide specific CTL activity (IFN-gamma production, ELISPOT)” value (shortened to “Peptide specific CTL activity”) ([3]; listed as TTLL4-A24-9-79) of the same sequence?
Answer: Its value is “potent IFN-gamma production; also recorded: significant and specific CTL activity”.

Question: Which results are given for SYDPLRIYLF [SEQ ID NO: 21]?
Answer: Specific CTL activity against COS7 cells transfected with both TTLL4 and HLA-A*2402 ([4]; listed as TTLL4-A24-10-773): specific CTL activity; also recorded: potent CTL activity; Specific CTL activity against control COS7 cells expressing either HLA-A*2402 or TTLL4 [4]: no significant specific CTL activity was detected; IFN-gamma production of CTL lines (ELISA) [1]: potent IFN-gamma production; IFN-gamma production of CTL clones (ELISA) ([2]; listed as TTLL4-A24-10-773): Potent IFN-gamma productions; Peptide specific CTL activity (IFN-gamma production, ELISPOT) ([3]; listed as TTLL4-A24-10-773): potent IFN-gamma production; also recorded: significant and specific CTL activity

Question: Which “IFN-gamma production of CTL lines (ELISA)” value [1] does the source give for RYLHKPYLI [SEQ ID NO: 1] here?
Answer: The value was “potent IFN-gamma production”.

Question: What about the “IFN-gamma production of CTL clones (ELISA)” value ([2]; listed as TTLL4-A24-9-750) of the same sequence?
Answer: The value was “Potent IFN-gamma productions”.

Question: What about the “Peptide specific CTL activity” value ([3]; listed as TTLL4-A24-9-750) of the same sequence?
Answer: The value was “potent IFN-gamma production; also recorded: significant and specific CTL activity”.

Question: Which “Specific CTL activity against COS7 cells transfected with both TTLL4 and HLA-A*2402” value ([4]; listed as TTLL4-A24-10-103) does the source give for CYLHSLPDLF [SEQ ID NO: 20] here?
Answer: The value was “specific CTL activity; also recorded: potent CTL activity”.

Question: What about the “Specific CTL activity against control COS7 cells expressing either HLA-A*2402 or TTLL4” value [4] of the same sequence?
Answer: Its value is “no significant specific CTL activity was detected”.

Question: What about the “IFN-gamma production of CTL lines (ELISA)” value [1] of the same sequence?
Answer: Its value is “potent IFN-gamma production”.

Question: What about the “IFN-gamma production of CTL clones (ELISA)” value ([2]; listed as TTLL4-A24-10-103) of the same sequence?
Answer: Its value is “Potent IFN-gamma productions”.

Question: What about the “Peptide specific CTL activity” value ([3]; listed as TTLL4-A24-10-103) of the same sequence?
Answer: Its value is “potent IFN-gamma production; also recorded: significant and specific CTL activity”.
